This note sets out measurements from US8193224B2, “Medicinal composition for prevention or treatment of parasitic protozoan infection” (Fujifilm Corporation, priority 2004, dated 2012).

Format in all cases: cell-based
Series [1] has as its system Plasmodium falciparum K1 strain. Briefly: Chloroquine resistant-Plasmodium falciparum growth inhibition screening test. The settings on record: for EC50: Plasmodium falciparum, 72 h, chloroquine resistant K1 strain, 3H-hypoxanthine, 48 + 24 hours, read-out: 50% growth inhibition concentration P. falciparum K1; for Selective toxicity: chemotherapy index = EC50 rat L6 cells / EC50 chloroquine resistant P. falciparum. How it is done: In the present example, protozoa of Plasmodium falciparum K1 strain was used. RPMI-1640 medium sterilized with a filter to which human serum was added to be 5%, was used in the experiment. Malarial parasites were cultured under 3% O2 concentration, 4% Co2 concentration, 93% N2 concentration, and at a temperature of 37° C.
The compounds of the present invention to be used in the present test and the positive target drug (chloroquine) were dissolved in DMSO to make a test solution of a predetermined concentration. Cultured malarial parasite infected-erythrocytes were collected by centrifugation, and diluted with non-infected erythrocyte so that the early infection rate is 0.15%. Hematocrit level at that time was 2.5%. 200 μL of malaria infected solution was added to wells of a 96-well culture plate, and adjusted by adding a test solution containing drug of a predetermined concentration or a drug-free DMSO. Test solutions were taken by duplicates. After culturing for 48 hours at 37° C., 0.5 μCi radioactive tritium (3H)-labeled hypoxanthine was added to each well. After further culturing for 24 hours under the same conditions, it was collected on a glass fiber filter and washed with distilled water. Radiation intensity was measured with a beta plate liquid scintillation counter (Wallac), and malarial parasite infection rates of the test solution added group and of the control group were calculated. Growth inhibition rate was calculated with the following formula based on the malarial parasite infection rate obtained in the above, to obtain a 50% growth inhibition concentration (EC50). Growth inhibition rate (%)={1−(b−a)/(c−a)}×100 a: early infection rate b: infection rate when test solution was added c: infection rate of the control

Series [2] has as its system Trypanosoma brucei rhodensiense (STIB 900 strain). Briefly: African trypanosome protozoa growth inhibition screening test. The settings on record: chemotherapy index = EC50 rat L6 cells / EC50 African trypanosome protozoa.
In series [3] the test system is Trypanosoma cruzi (Tulahuen C2C4 strain). Briefly: American trypanosome protozoa growth inhibition screening test. The settings on record: for EC50: Trypanosoma cruzi, Tulahuen C2C4 strain in rat L6 cells, 96 hours, CPRG/Nonidet, read-out: 50% growth inhibition concentration Trypanosoma cruzi; for Selective toxicity: chemotherapy index = EC50 rat L6 cells / EC50 American trypanosome protozoa. How it is done: In the present example, amastigote and trypomastigote infected with rat L6 cells of protozoa of Trypanosoma cruzi (Tulahuen C2C4 strain) were used. As medium used in the test, RPMI 1640 medium containing L6 cells was supplemented so that L-glutamine (200 mM) becomes 1%, fetal bovine serum becomes 10%, which was cultured under CO2 concentration 5%, at 37° C.
The compounds of the present invention to be used in the test and the positive target agent (benznidazole) were dissolved in DMSO to make a test solution of a predetermined concentration. A medium containing 5×10^3 protozoa was added to wells of a 96-well culture plate, and pre-cultured for 48 hours. After replacing the medium, test solution containing drug of a predetermined concentration or a drug-free DMSO was added. Test solutions were taken by duplicates. After culturing the culture plate in an incubator for 96 hours, growth inhibition activity was tested. Test was conducted as follows.
50 μL of CPRG/Nonidet was added to each well, and allowed to rest for 2 to 6 hours. Next, the culture plate was placed on a fluorescent micro-plate reader, and the absorbance was measured at 540 nm. Growth inhibition rate was calculated with the following formula based on the protozoan infection rate which was obtained by calculating trypanosome infection rate of the test solution added group and control group, to obtain a 50% growth inhibition concentration (EC50). Growth inhibition rate (%)={1−(b−a)/(c−a)}×100 a: early infection rate b: infection rate when test solution was added c: infection rate of the control

A short description of series [4]: Growth inhibition test of rat L6 cells. The settings on record: L6 cells (rat skeletal myoblast), Alamar Blue (Table 2), read-out: 50% growth inhibition concentration Cytotoxicity L6.
Series [5] deals with Trypanosoma brucei rhodensiense (STIB 900 strain). In words: African trypanosome protozoa growth inhibition screening test. As to conditions: Trypanosoma brucei, STIB900; STIB 900 strain, blood stream form, 72 hours, Alamar Blue; read-out: 50% growth inhibiting concentration Trypanosoma brucei rhod. On the technique in general: Resazurin is reduced to fluorescent resorufin, in cell work by metabolically active cells.

Structures are written as SMILES.

With `CCN1/C(=C/C=c2\s/c(=C\c3sc4c5ccccc5ccc4[n+]3CC)n(CC)c2=O)Sc2ccc3ccccc3c21` [A-1], the EC50 in series [1] turned out to be 11 nM; in series [3], 5100 nM; in series [5], 16 nM. In addition, the figures for the Selective toxicity in series [1], in series [2] and in series [3] were 2700, 1900 and 5.9, respectively. Besides, in series [4], the EC50 at 72 h stood at 30000 nM.

With `CCN1C(C)=CS/C1=C\C=c1/s/c(=C\c2sc3ccccc3[n+]2CC)n(CC)c1=O` [A-15], the EC50 in series [1] was found to be 76 nM; in series [3] it was 980 nM; in series [5] it was 89 nM. The Selective toxicity in series [1] came to 291; in series [2], 250; in series [3], 22. In series [4], the EC50 at 72 h was determined as 22000 nM.

For `CCN1/C(=C/C=c2\s/c(=C\C3=[N+](CC)CCS3)n(CC)c2=O)C=Cc2ccccc21` [A-10], the EC50 in series [1] was 120 nM; in series [3], 160 nM; in series [5], 200 nM. Also, the Selective toxicity in series [1] was found to be 170; in series [2], 100; in series [3], 130. In series [4], the EC50 at 72 h turned out to be 20000 nM.
